Test results reported in patent US7932270B2 (Cytokinetics, Inc., priority 2006, dated 2011).

Biological target: T1, chicken gizzard smooth muscle myosin subfragment-1 chemically crosslinked to cardiac or skeletal actin (Gallus gallus, UniProt P10587)
T1 construct: chicken gizzard smooth muscle myosin subfragment-1; from tissue; host or cells: chicken gizzard
Test: Smooth muscle myosin ATPase dose response assay (pyruvate kinase/horseradish peroxidase/pyruvate oxidase-coupled, amplex red fluorescence)
Format: biochemical
Conditions: read-out: IC50 Arithmetic Mean
Summary of the method: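 Chicken gizzard myosin S1 crosslinked to cardiac or skeletal actin, titrated to a set hydrolysis rate; 0.15 mM ATP, 12 mM PIPES pH 7.00, 100 mM KCl, 2 mM MgCl2. Pyruvate kinase/pyruvate oxidase/HRP coupling with amplex red fluorescence; IC50 from 4-parameter fit.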

T1 sequence (P02607 2-151): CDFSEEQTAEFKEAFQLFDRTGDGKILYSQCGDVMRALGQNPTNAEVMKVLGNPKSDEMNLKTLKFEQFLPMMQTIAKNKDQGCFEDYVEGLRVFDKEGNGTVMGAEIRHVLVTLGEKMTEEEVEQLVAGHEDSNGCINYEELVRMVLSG
T1 sequence (P10587 84-789): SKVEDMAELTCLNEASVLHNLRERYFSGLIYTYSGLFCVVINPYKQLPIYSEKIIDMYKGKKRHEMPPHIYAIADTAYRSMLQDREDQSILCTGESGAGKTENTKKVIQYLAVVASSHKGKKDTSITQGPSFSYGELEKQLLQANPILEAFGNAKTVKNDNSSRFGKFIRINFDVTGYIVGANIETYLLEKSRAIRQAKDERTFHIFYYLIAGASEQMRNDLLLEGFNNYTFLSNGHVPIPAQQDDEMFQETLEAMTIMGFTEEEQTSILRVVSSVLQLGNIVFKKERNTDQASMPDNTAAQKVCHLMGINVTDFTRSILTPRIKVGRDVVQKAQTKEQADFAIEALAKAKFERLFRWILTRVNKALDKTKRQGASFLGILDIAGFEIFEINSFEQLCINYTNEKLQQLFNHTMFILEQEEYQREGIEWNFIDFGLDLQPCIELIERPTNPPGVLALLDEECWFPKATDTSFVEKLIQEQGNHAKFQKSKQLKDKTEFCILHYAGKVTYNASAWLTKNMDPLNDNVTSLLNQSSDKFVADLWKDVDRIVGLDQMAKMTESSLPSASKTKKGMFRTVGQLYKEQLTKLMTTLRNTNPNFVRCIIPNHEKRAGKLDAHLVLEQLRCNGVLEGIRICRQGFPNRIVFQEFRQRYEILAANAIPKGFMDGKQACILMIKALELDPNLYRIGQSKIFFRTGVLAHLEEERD

| SMILES | IC50 |
| --- | --- |
| N#Cc1ccccc1-c1ccc(C(=O)N[C@H](CCCCNC(=O)OCc2ccccc2)C(N)=O)c(NCCc2cccc(F)c2)n1 [N-{(1R)-1-carbamoyl-5-[(phenylmethoxy)carbonylamino]pentyl}(6-(2-cyanophenyl)-2-{[2-(3-fluorophenyl)ethyl]amino}(3-pyridyl))carboxamide] | 58800 nM |
| CC(C)(C)OC(=O)NCc1ncccc1CNC(=O)c1cc(C#N)c(-c2cn[nH]c2)nc1NCCc1cccc(F)c1 [N-[(2-{[(tert-butoxy)carbonylamino]methyl}(3-pyridyl))methyl](5-cyano-2-{[2-(3-fluorophenyl)ethyl]amino}-6-pyrazol-4-yl(3-pyridyl))carboxamide] | 1000 nM |
| N#Cc1ccccc1-c1ccc(C(=O)NC[C@H]2O[C@@H](O)[C@H](O)[C@@H](O)[C@@H]2O)c(NCCc2cccc(F)c2)n1 | 5540 nM |
| O=C(NCC(O)CO)c1cc(F)c(-c2cn[nH]c2)nc1NCCc1cccc(F)c1 (stereo not shown) [N-(2,3-dihydroxypropyl)(5-fluoro-2-{[2-(3-fluorophenyl)ethyl]amino}-6-pyrazol-4-yl(3-pyridyl))carboxamide] | 448 nM |
| O=C(NCc1cccnc1)c1ccc(-c2ccccc2F)nc1NCCc1cccc(F)c1 [(6-(2-fluorophenyl)-2-{[2-(3-fluorophenyl)ethyl]amino}(3-pyridyl))-N-(3-pyridylmethyl)carboxamide] | 139 nM |
| CC(=O)N1CCC(CNC(=O)c2ccc(-c3ccccc3C#N)nc2NCCc2cccc(F)c2)C1 (stereo not shown) [N-[(1-acetylpyrrolidin-3-yl)methyl](6-(2-cyanophenyl)-2-{[2-(3-fluorophenyl)ethyl]amino}(3-pyridyl))carboxamide] | 334 nM |
| CC(=O)NCCNC(=O)c1ccc(-c2ccccc2C#N)nc1NCCc1cccc(F)c1 [N-{2-[(6-(2-cyanophenyl)-2-{[2-(3-fluorophenyl)ethyl]amino}-3-pyridyl)carbonylamino]ethyl}acetamide] | 958 nM |
| N#Cc1ccccc1-c1ccc(C(=O)NCc2cccnc2CNC(=O)c2ccc(-c3ccccc3C#N)nc2NCCc2cccc(F)c2)c(NCCc2cccc(F)c2)n1 [(6-(2-cyanophenyl)-2-{[2-(3-fluorophenyl)ethyl]amino}(3-pyridyl))-N-[(3-{[(6-(2-cyanophenyl)-2-{[2-(3-fluorophenyl)ethyl]amino}(3-pyridyl))carbonylamino]methyl}(2-pyridyl))methyl]carboxamide] | 2440 nM |
| CN(C)c1ccc(-c2ccc(C(=O)NCc3cccnc3)c(NCCc3ccccn3)n2)cc1 [{6-[4-(dimethylamino)phenyl]-2-[(2-(2-pyridyl)ethyl)amino](3-pyridyl)}-N-(3-pyridylmethyl)carboxamide] | 809 nM |
| O=C(NCc1ccccn1)c1ccc(-c2ccccc2)nc1NCCc1ccccn1 [{6-phenyl-2-[(2-(2-pyridyl)ethyl)amino](3-pyridyl)}-N-(2-pyridylmethyl)carboxamide] | 463 nM |
| Cc1cc(C(=O)NC[C@H]2CCCN2C(=O)CCCNC(=O)OC(C)(C)C)c(NCCc2cccc(F)c2)nc1-c1cnn(C)c1 [N-[((2R)-1-{4-[(tert-butoxy)carbonylamino]butanoyl}pyrrolidin-2-yl)methyl](2-{[2-(3-fluorophenyl)ethyl]amino}-5-methyl-6-(1-methylpyrazol-4-yl)(3-pyridyl))carboxamide] | 2260 nM |
| [N-]=[N+]=NCc1cc(C(=O)NCc2cccnc2)c(NCCc2cccc(F)c2)nc1-c1ccccc1 | 428 nM |
| N#Cc1ccccc1-c1ccc(C(=O)NC[C@H]2CCN2C(=O)CCN)c(NCCc2cccc(F)c2)n1 [N-{[(2R)-1-(3-aminopropanoyl)azetidin-2-yl]methyl}(6-(2-cyanophenyl)-2-{[2-(3-fluorophenyl)ethyl]amino}(3-pyridyl))carboxamide] | 45 nM |

More lines, in order of falling IC50, values ahead:

| IC50 | SMILES |
| --- | --- |
| 10600 nM | N#Cc1ccccc1-c1ccc(C(=O)NC[C@@H](CN)NC(=O)CO)c(NCCc2cccc(F)c2)n1 [N-((1R)-2-amino-1-{[(6-(2-cyanophenyl)-2-{[2-(3-fluorophenyl)ethyl]amino}(3-pyridyl))carbonylamino]methyl}ethyl)-2-hydroxyacetamide] |
| 5940 nM | Cc1n[nH]c(C)c1CCNc1nc(-c2ccccc2)ccc1C(=O)NCc1cccnc1 [(2-{[2-(3,5-dimethylpyrazol-4-yl)ethyl]amino}-6-phenyl(3-pyridyl))-N-(3-pyridylmethyl)carboxamide] |
| 3370 nM | O=C(NCc1cccnc1)c1ccc(-c2ccc(Cl)c(Cl)c2)nc1NCCc1ccccn1 [{6-(3,4-dichlorophenyl)-2-[(2-(2-pyridyl)ethyl)amino](3-pyridyl)}-N-(3-pyridylmethyl)carboxamide] |
| 995 nM | N#Cc1ccccc1-c1ccc(C(=O)NC[C@@H]2CCCN2C(=O)CN)c(NCCc2cccc(F)c2)n1 [N-{[(2S)-1-(2-aminoacetyl)pyrrolidin-2-yl]methyl}(6-(2-cyanophenyl)-2-{[2-(3-fluorophenyl)ethyl]amino}(3-pyridyl))carboxamide] |
| 705 nM | N#Cc1ccccc1-c1ccc(C(=O)NC[C@H]2CCCN2CCN)c(NCCc2cccc(F)c2)n1 [N-{[(2R)-1-(2-aminoethyl)pyrrolidin-2-yl]methyl}(6-(2-cyanophenyl)-2-{[2-(3-fluorophenyl)ethyl]amino}(3-pyridyl))carboxamide] |
| 380 nM | N#Cc1ccccc1-c1ccc(C(=O)NCc2cccnc2)c(NCCc2ccccc2O)n1 [(6-(2-cyanophenyl)-2-{[2-(2-hydroxyphenyl)ethyl]amino}(3-pyridyl))-N-(3-pyridylmethyl)carboxamide] |
| 355 nM | O=C1CC[C@H](CNC(=O)c2ccc(-c3cc[nH]n3)nc2NCCc2cccc(F)c2)N1 [N-[((2R)-5-oxopyrrolidin-2-yl)methyl](2-{[2-(3-fluorophenyl)ethyl]amino}-6-pyrazol-3-yl(3-pyridyl))carboxamide] |
| 270 nM | N#Cc1ccccc1-c1ccc(C(=O)NCC2CCN(C(=O)CCN)C2)c(NCCc2cccc(F)c2)n1 (stereo not shown) [N-{[1-(3-aminopropanoyl)pyrrolidin-3-yl]methyl}(6-(2-cyanophenyl)-2-{[2-(3-fluorophenyl)ethyl]amino}(3-pyridyl))carboxamide] |
| 166 nM | C[C@@H](N)C(=O)N1CCC[C@@H]1CNC(=O)c1ccc(-c2ccccc2C#N)nc1NCCc1cccc(F)c1 [N-{[(2R)-1-((2R)-2-aminopropanoyl)pyrrolidin-2-yl]methyl}(6-(2-cyanophenyl)-2-{[2-(3-fluorophenyl)ethyl]amino}(3-pyridyl))carboxamide] |
| 160 nM | O=C(NCc1cccnc1)c1ccc(-c2ccccc2)nc1NCCc1ccccc1Cl [(2-{[2-(2-chlorophenyl)ethyl]amino}-6-phenyl(3-pyridyl))-N-(3-pyridylmethyl)carboxamide] |
| 66 nM | NCCCN1C(=O)CC[C@@H]1CNC(=O)c1cc(F)c(-c2cn[nH]c2)nc1NCCc1cccc(F)c1 [N-{[(2R)-1-(3-aminopropyl)-5-oxopyrrolidin-2-yl]methyl}(5-fluoro-2-{[2-(3-fluorophenyl)ethyl]amino}-6-pyrazol-4-yl(3-pyridyl))carboxamide] |
| 24 nM | O=C(NCc1cc[nH]n1)c1cc(F)c(-c2cn[nH]c2)nc1NCCc1cccc(F)c1 [(5-fluoro-2-{[2-(3-fluorophenyl)ethyl]amino}-6-pyrazol-4-yl(3-pyridyl))-N-(pyrazol-3-ylmethyl)carboxamide] |
